In ChEMBL document CHEMBL3885881, “DrugMatrix”:

Species: Rattus norvegicus
Assay: DrugMatrix - Regimen: Daily Repeat
Type: toxicity, organism-based, Sprague-Dawley
Set-up: regimen Daily Repeat, gender Male, age 6-8 weeks
Conditions: in vivo, po, route oral GAVAGE, […]; for ABSOLUTE BASOPHIL / BASOPHIL / NUCLEATED RED BLOOD CELLS / ABSOLUTE EOSINOPHIL / ABSOLUTE LYMPHOCYTE / ABSOLUTE MONOCYTE / ABSOLUTE SEGMENTED NEUTROPHIL / EOSINOPHIL / ERYTHROCYTE COUNT / HEMATOCRIT / HEMOGLOBIN / LEUKOCYTE COUNT / LYMPHOCYTE / MEAN CORPUSCULAR HEMOGLOBIN / MEAN CORPUSCULAR HEMOGLOBIN CONCENTRATION / MEAN CORPUSCULAR VOLUME / MONOCYTE / NEUTROPHIL / PLATELET COUNT: tissue Blood; for TOTAL BILIRUBIN / ALANINE AMINOTRANSFERASE / ALBUMIN / ALKALINE PHOSPHATASE / ASPARTATE AMINOTRANSFERASE / BLOOD UREA NITROGEN / CARBON DIOXIDE / CHLORIDE / CHOLESTEROL / CREATINE PHOSPHOKINASE / CREATININE / GLUCOSE / LACTATE DEHYDROGENASE / LIPASE / PHOSPHORUS / POTASSIUM / SODIUM / TOTAL PROTEIN / URIC ACID: tissue Plasma
[1] = 0 mg/kg, 72 h, dose level Control, time 3 day
[2] = 0 mg/kg, 120 h, dose level Control, time 5 day
[3] = 10 mg/kg, 72 h, dose level Low, time 3 day
[4] = 10 mg/kg, 120 h, dose level Low, time 5 day

## COc1ccc2cc([C@H](C)C(=O)O)ccc2c1 [NAPROXEN]
[1]
  ABSOLUTE BASOPHIL: 0 CELLS/uL
  BASOPHIL: 0%
  NUCLEATED RED BLOOD CELLS: 0 /100WBC
  TOTAL BILIRUBIN: 0.2 mg/dL
[2]
  ABSOLUTE BASOPHIL: 0 CELLS/uL
  BASOPHIL: 0%
[3]
  ABSOLUTE BASOPHIL: 0 CELLS/uL
  ABSOLUTE EOSINOPHIL: 0 CELLS/uL
  ABSOLUTE LYMPHOCYTE: 16953.33 CELLS/uL
  ABSOLUTE MONOCYTE: 484 CELLS/uL
  ABSOLUTE SEGMENTED NEUTROPHIL: 1296 CELLS/uL
  BASOPHIL: 0%
  EOSINOPHIL: 0%
  ERYTHROCYTE COUNT: 5.66 x10E6/uL
  HEMATOCRIT: 36.03%
  HEMOGLOBIN: 14.13 G/DL
  LEUKOCYTE COUNT: 18.73 x10E3/uL
  LYMPHOCYTE: 90.67%
  MEAN CORPUSCULAR HEMOGLOBIN: 25.03 pg
  MEAN CORPUSCULAR HEMOGLOBIN CONCENTRATION: 39.23 G/DL
  MEAN CORPUSCULAR VOLUME: 63.73 fL
  MONOCYTE: 2.67%
  NEUTROPHIL: 6.67%
  NUCLEATED RED BLOOD CELLS: 0.33 /100WBC
  PLATELET COUNT: 1140 x10E3/uL
  ALANINE AMINOTRANSFERASE: 66 u/L
  ALBUMIN: 3.9 G/DL
  ALKALINE PHOSPHATASE: 469.67 u/L
  ASPARTATE AMINOTRANSFERASE: 84 u/L
  BLOOD UREA NITROGEN: 9.67 mg/dL
  CARBON DIOXIDE: 20.33 mmol/L
  CHLORIDE: 103.67 MEQ/L
  CHOLESTEROL: 54.33 mg/dL
  CREATINE PHOSPHOKINASE: 295.33 u/L
  CREATININE: 0.19 mg/dL
  GLUCOSE: 187.67 mg/dL
  LACTATE DEHYDROGENASE: 313.33 u/L
  LIPASE: 9.33 u/L
  PHOSPHORUS: 12.03 mg/dL
  POTASSIUM: 6.09 MEQ/L
  SODIUM: 143.67 MEQ/L
  TOTAL BILIRUBIN: 0.1 mg/dL
  TOTAL PROTEIN: 5.87 G/DL
  URIC ACID: 2.03 mg/dL
[4]
  ABSOLUTE BASOPHIL: 0 CELLS/uL
  ABSOLUTE EOSINOPHIL: 321 CELLS/uL
  ABSOLUTE LYMPHOCYTE: 16605.33 CELLS/uL
  ABSOLUTE MONOCYTE: 680 CELLS/uL
  ABSOLUTE SEGMENTED NEUTROPHIL: 1493.67 CELLS/uL
  BASOPHIL: 0%
  EOSINOPHIL: 2%
  ERYTHROCYTE COUNT: 5.33 x10E6/uL
  HEMATOCRIT: 34.4%
  HEMOGLOBIN: 13.33 G/DL
  LEUKOCYTE COUNT: 19.1 x10E3/uL
  LYMPHOCYTE: 86.33%
  MEAN CORPUSCULAR HEMOGLOBIN: 25.23 pg
  MEAN CORPUSCULAR HEMOGLOBIN CONCENTRATION: 38.8 G/DL
  MEAN CORPUSCULAR VOLUME: 65 fL
  MONOCYTE: 3.67%
  NEUTROPHIL: 8%
  NUCLEATED RED BLOOD CELLS: 0 /100WBC
  PLATELET COUNT: 1322.33 x10E3/uL
  ALANINE AMINOTRANSFERASE: 109.67 u/L
  ALBUMIN: 3.7 G/DL
  ALKALINE PHOSPHATASE: 463.67 u/L
  ASPARTATE AMINOTRANSFERASE: 145.33 u/L
  BLOOD UREA NITROGEN: 8.33 mg/dL
  CARBON DIOXIDE: 19.33 mmol/L
  CHLORIDE: 104 MEQ/L
  CHOLESTEROL: 40.33 mg/dL
  CREATINE PHOSPHOKINASE: 1655.33 u/L
  CREATININE: 0.18 mg/dL
  GLUCOSE: 252 mg/dL
  LACTATE DEHYDROGENASE: 400 u/L
  LIPASE: 9 u/L
  PHOSPHORUS: 14.07 mg/dL
  POTASSIUM: 6.26 MEQ/L
  SODIUM: 143.27 MEQ/L
  TOTAL BILIRUBIN: 0.17 mg/dL
  TOTAL PROTEIN: 5.4 G/DL
  URIC ACID: 3.1 mg/dL
